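In this assay, cells in 96-well plates receive the compound at five concentrations for 48 hours. Endpoints are linearly interpolated between the surrounding concentrations. GI50 = concentration required for 50% inhibition of growth. The concentration for full growth arrest is given as TGI.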

Some test systems named below: MDA-MB-435; NCI-H226 lung; A498 renal; SF-539 CNS; OVCAR-4 ovarian; NCI-H522 lung; SK-OV-3 ovarian; DU-145 prostate; OVCAR-8 ovarian; BT-549 breast.
Holding throughout (experiment): DTP human tumour cell line panel, 48 h

One may read the GI50 as the concentration that inhibits growth by half. As a reminder, the TGI is the concentration at which net growth stops. A higher TGI goes with lower sensitivity of the cells. In the case of `O=c1nc2[nH]c3c(-c4n[nH]c(=O)[nH]c4=O)cccc3c2n[nH]1`, the GI50 with MDA-MB-435, in the experiment on NCI-H226 lung, in the experiment on A498 renal, in the experiment on SF-539 CNS, with OVCAR-4 ovarian and in the experiment with NCI-H522 lung was greater than 100 µM throughout. The GI50 in the experiment with SK-OV-3 ovarian, in the experiment on DU-145 prostate, with OVCAR-8 ovarian and in the experiment with BT-549 breast was greater than 100 µM each time. Also, the TGI with MDA-MB-435, with NCI-H226 lung, in the experiment on A498 renal, in the experiment on SF-539 CNS, in the experiment with OVCAR-4 ovarian and in the experiment on NCI-H522 lung was greater than 100 µM throughout. The TGI in the experiment on SK-OV-3 ovarian, in the experiment with DU-145 prostate, in the experiment with OVCAR-8 ovarian and with BT-549 breast was greater than 100 µM throughout.

With `Oc1ccccc1C=Nc1nc(OCc2ccccc2)nc2[nH]ncc12`, the GI50 with MDA-MB-435 is 20.7 µM; in the experiment with NCI-H226 lung, 16.5 µM; in the experiment with A498 renal it was 20.8 µM; in the experiment on SF-539 CNS, 22.1 µM; with OVCAR-4 ovarian, 23.5 µM; in the experiment with NCI-H522 lung it was 26.3 µM. Moreover, the GI50 is 25.9 µM in the experiment with SK-OV-3 ovarian, 33.9 µM with DU-145 prostate, 44.3 µM in the experiment with OVCAR-8 ovarian and 33.7 µM in the experiment on BT-549 breast. Further, the total growth inhibition concentration (TGI) with MDA-MB-435 is 44.8 µM; in the experiment on NCI-H226 lung, 40.6 µM; in the experiment with A498 renal, 56.9 µM; with SF-539 CNS, 43 µM; in the experiment on OVCAR-4 ovarian, 69.6 µM; in the experiment on NCI-H522 lung, greater than 100 µM. The TGI with SK-OV-3 ovarian was 55.4 µM; in the experiment with DU-145 prostate, greater than 100 µM; in the experiment on OVCAR-8 ovarian it was greater than 100 µM; in the experiment on BT-549 breast it was 86.7 µM.

In the case of `O=C(c1ccccc1)C(Br)C(Br)c1ccccc1` (stereo not given), the GI50 is 2.91 µM in the experiment on MDA-MB-435; 2.94 µM with NCI-H226 lung; 12.8 µM in the experiment with A498 renal; 10.7 µM in the experiment on SF-539 CNS; 1.66 µM in the experiment with OVCAR-4 ovarian; 1.18 µM in the experiment with NCI-H522 lung. Besides, the GI50 was 15.3 µM in the experiment on SK-OV-3 ovarian, 3.08 µM in the experiment on DU-145 prostate, 4.12 µM with OVCAR-8 ovarian and 12.8 µM in the experiment on BT-549 breast. Also, the TGI turned out to be 11.2 µM in the experiment on MDA-MB-435; 7.66 µM in the experiment on NCI-H226 lung; 25.5 µM in the experiment with A498 renal; 22.6 µM in the experiment on SF-539 CNS; 3.08 µM in the experiment on OVCAR-4 ovarian; 2.62 µM in the experiment with NCI-H522 lung. In addition, the TGI with SK-OV-3 ovarian is 28.8 µM; in the experiment on DU-145 prostate, 9.63 µM; in the experiment on OVCAR-8 ovarian, 13.3 µM; in the experiment with BT-549 breast, 25.6 µM.

As to `COc1ccc(/C=C\c2cc(OC)c(OC)c(OC)c2)c(NS(=O)(=O)c2ccc(C(C)(C)C)cc2)c1O`, the GI50 is 0.0427 µM with MDA-MB-435; 0.546 µM with NCI-H226 lung; 0.0241 µM in the experiment on A498 renal; 0.159 µM with SF-539 CNS; 0.188 µM in the experiment with OVCAR-4 ovarian; 0.213 µM with NCI-H522 lung. The GI50 in the experiment on SK-OV-3 ovarian was 1.42 µM; with DU-145 prostate, 0.395 µM; with OVCAR-8 ovarian, 0.44 µM; with BT-549 breast, 0.467 µM. In addition, the TGI stood at 0.735 µM in the experiment with MDA-MB-435; 13.5 µM in the experiment with NCI-H226 lung; 0.169 µM in the experiment on A498 renal; 0.509 µM with SF-539 CNS; 32 µM in the experiment on OVCAR-4 ovarian; 12.2 µM in the experiment on NCI-H522 lung. Further, the concentration for total growth inhibition (TGI) in the experiment with SK-OV-3 ovarian was 45.9 µM; in the experiment on DU-145 prostate, 12.5 µM; in the experiment on OVCAR-8 ovarian, greater than 100 µM; in the experiment on BT-549 breast, 5.22 µM.

With `CCCCC[C@@H](C/C=C/CCC(=O)NC/C(=C/Cl)[C@H]1C(=O)C(C)(C)C(=O)[C@@H](C)[C@@]1(C)O)OC`, the GI50 was 18.7 µM in the experiment with MDA-MB-435; 18 µM in the experiment with NCI-H226 lung; 26 µM in the experiment on A498 renal; 19.7 µM in the experiment on SF-539 CNS; 20 µM in the experiment with OVCAR-4 ovarian; 13.9 µM in the experiment on NCI-H522 lung. For the same compound, the GI50 in the experiment with SK-OV-3 ovarian is 30.8 µM; with DU-145 prostate it was 16.8 µM; with OVCAR-8 ovarian, 18.6 µM; with BT-549 breast, 17.9 µM. In addition, the total growth inhibition concentration (TGI) in the experiment with MDA-MB-435 worked out at 36.3 µM; in the experiment with NCI-H226 lung, 36.1 µM; in the experiment on A498 renal, 55 µM; with SF-539 CNS, 35.2 µM; in the experiment on OVCAR-4 ovarian, 45.8 µM; with NCI-H522 lung, 28 µM. In addition, the TGI in the experiment on SK-OV-3 ovarian was 68.7 µM; in the experiment on DU-145 prostate, 31.8 µM; with OVCAR-8 ovarian it was 36.1 µM; in the experiment with BT-549 breast, 32.7 µM.

Consider `CN(C)c1ccc(N=C2C=CC(=C(C#N)C#N)c3ccccc32)cc1`, for which the TGI worked out at 0.191 µM in the experiment on MDA-MB-435; 0.741 µM with NCI-H226 lung; 1.37 µM in the experiment on A498 renal; 0.576 µM with SF-539 CNS; 6.13 µM with OVCAR-4 ovarian; 0.305 µM in the experiment with NCI-H522 lung. Besides, the TGI came out at 6.53 µM with SK-OV-3 ovarian, 3.34 µM in the experiment on DU-145 prostate, 1.75 µM in the experiment on OVCAR-8 ovarian and 5.12 µM with BT-549 breast.

Values taken from PubChem BioAssay (NCI).
